Test results taken from patent US20050171358A1 (priority 2002, published 2005).

How the values were obtained:
[1] = system: Colletotrichum lagenarium; details: 200 ppm spray on cucumber (3 leaf stage), inoculated next day; lesion numbers on first and second leaves after 7 days in green house, graded by Table 5
Pyricularia oryzae = type: in vivo; details: 200 ppm spray on rice (Koshihikari, 3 leaf stage), inoculated next day; lesion numbers on third leaves after 7 days in green house, graded by Table 5

Compound: O=C(NCc1cc(-c2ccccc2)no1)c1ccc(Cl)cc1 [III-124, N-[(3-phenyl-5-isoxazolyl)methyl]-4-chlorobenzamide]
- Evaluation (effect for cucumber anthracnose) [1]: 4 (1˜5)
- Evaluation (effect for rice blast) (Pyricularia oryzae): 5 (0)

Compound: O=C(NCc1cc(-c2ccccc2)no1)c1ccc(C(F)(F)F)cc1 [III-130, N-[(3-phenyl-5-isoxazolyl)methyl]-4-trifluoromethylbenzamide]
- Evaluation (effect for cucumber anthracnose) [1]: 4 (1˜5)
- Evaluation (effect for rice blast) (Pyricularia oryzae): 4 (1˜5)

Compound: N#Cc1ccc(C(=O)NCc2cc(-c3ccccc3)no2)cc1 [III-133, N-[(3-phenyl-5-isoxazolyl)methyl]-4-cyanobenzamide]
- Evaluation (effect for cucumber anthracnose) [1]: 4 (1˜5)
- Evaluation (effect for rice blast) (Pyricularia oryzae): 4 (1˜5)

Compound: Cc1ccc(-c2cc(CNC(=O)c3ccccc3O)on2)cc1 [III-134, N-[(3-(4-tolyl)-5-isoxazolyl)methyl]-2-hydroxybenzamide]
- Evaluation (effect for cucumber anthracnose) [1]: 5 (0)
- Evaluation (effect for rice blast) (Pyricularia oryzae): 3 (6˜10)

Compound: O=C(NCc1cc(-c2ccccc2)no1)c1ccc([N+](=O)[O-])cc1 [III-137, N-[(3-phenyl-5-isoxazolyl)methyl]-4-nitrobenzamide]
- Evaluation (effect for cucumber anthracnose) [1]: 5 (0)
- Evaluation (effect for rice blast) (Pyricularia oryzae): 4 (1˜5)

Compound: O=C(NCc1cc(-c2ccccc2)no1)c1ccc(OC(F)(F)F)cc1 [III-139, N-[(3-phenyl-5-isoxazolyl)methyl]-4-trifluoromethoxybenzamide]
- Evaluation (effect for cucumber anthracnose) [1]: 5 (0)
- Evaluation (effect for rice blast) (Pyricularia oryzae): 5 (0)

Compound: COc1ccc(C(=O)NCc2cc(-c3ccccc3)no2)cc1OC [III-156, N-[(3-phenyl-5-isoxazolyl)methyl]-3,4-dimethoxybenzamide]
- Evaluation (effect for cucumber anthracnose) [1]: 4 (1˜5)
- Evaluation (effect for rice blast) (Pyricularia oryzae): 4 (1˜5)

Compound: Cc1ccc(-c2cc(CNC(=O)c3ccc(C)c(F)c3)on2)cc1 [III-162, N-[(3-(4-tolyl)-5-isoxazolyl)methyl]-3-fluoro-4-methylbenzamide]
- Evaluation (effect for cucumber anthracnose) [1]: 5 (0)
- Evaluation (effect for rice blast) (Pyricularia oryzae): 5 (0)

Compound: O=C(NCc1cc(-c2ccccc2)no1)c1ccccn1 [III-174, (3-phenyl-5-isoxazolyl)methylaminocarbonyl-2-pyridine]
- Evaluation (effect for cucumber anthracnose) [1]: 4 (1˜5)
- Evaluation (effect for rice blast) (Pyricularia oryzae): 4 (1˜5)

Compound: O=C(NCc1cc(-c2ccccc2)no1)c1cccs1 [III-177, (3-phenyl-5-isoxazolyl)methylaminocarbonyl-2-thiophene]
- Evaluation (effect for cucumber anthracnose) [1]: 4 (1˜5)
- Evaluation (effect for rice blast) (Pyricularia oryzae): 4 (1˜5)

Compound: O=C(NCc1cc(-c2ccccc2)no1)c1ccc2c(c1)OCO2 [III-180, 5-(3-phenyl-5-isoxazolyl)methylaminocarbonyl-1,3-benzodioxol]
- Evaluation (effect for cucumber anthracnose) [1]: 5 (0)
- Evaluation (effect for rice blast) (Pyricularia oryzae): 5 (0)

Compound: O=C(/C=C/c1ccccc1)NCc1cc(-c2ccccc2)no1 [III-201, (E)-N-[(3-phenyl-5-isoxazolyl)methyl]-3-phenylpropenamide]
- Evaluation (effect for cucumber anthracnose) [1]: 5 (0)
- Evaluation (effect for rice blast) (Pyricularia oryzae): 5 (0)

Compound: O=C(NCc1cc(-c2ccccc2)no1)N1CCc2ccccc21 [III-208, N-[(3-phenyl-5-isoxazolyl)methylaminocarbonyl]indoline]
- Evaluation (effect for cucumber anthracnose) [1]: 4 (1˜5)
- Evaluation (effect for rice blast) (Pyricularia oryzae): 4 (1˜5)

Compound: Cc1ccc(C(=O)NCc2cc(/C=C/c3ccccc3)no2)cc1 [III-210, N-{[3-(2-phenylethenyl)-5-isoxazolyl)methyl]-4-methylbenzamide]
- Evaluation (effect for cucumber anthracnose) [1]: 5 (0)
- Evaluation (effect for rice blast) (Pyricularia oryzae): 5 (0)

Compound: CO/N=C/c1ccc(-c2cc(CNC(=O)c3ccc(C)cc3)on2)cc1 [III-214]
- Evaluation (effect for cucumber anthracnose) [1]: 5 (0)
- Evaluation (effect for rice blast) (Pyricularia oryzae): 4 (1˜5)

Compound: COc1ccc(C(=O)NCc2cc(-c3ccc(OC)cc3F)no2)cc1 [III-215, N-{[3-(2-fluoro-4-methoxyphenyl)-5-isoxazolyl]methyl}-4-methoxylbenzamide]
- Evaluation (effect for cucumber anthracnose) [1]: 5 (0)
- Evaluation (effect for rice blast) (Pyricularia oryzae): 5 (0)
